Source: patent US8415480B2, “Thiazolidine carboxamide derivatives as modulators of the prostaglandin F receptor” (Merck Serono SA, priority 2002, dated 2013)

Legend:
[1] = molecular target: T1, human Prostaglandin F2α receptor (Homo sapiens, UniProt P43088); test: In vitro competition binding assay on human Prostaglandin F2α receptor (Scintillation Proximity Assay, 3H PGF2-alpha radioligand); conditions: scintillation proximity competition binding assay against Prostaglandin F2α as radioligand; read-out: Binding affinity for human Prostaglandin F2α receptor Ki
T1 construct: Human Prostaglandin F2α receptor (full-length cDNA) was subcloned into the pCEP4; expressed in transfected cells; host or cells: HEK 293 EBNA cells (membrane preparation)
From the text: The compounds of formula (II), were be subjected to the following in vitro and in vivo biological assays: • 1) In vitro competition binding assay on human Prostaglandin F2α receptor using a Scintillating Proximity Assay (SPA)
This assay allows to determine the binding affinity of the test compounds of formula (I) for the human Prostaglandin F2α receptor: […]
Human Prostaglandin F2α receptor (full-length cDNA) was subcloned into the pCEP4 (Invitrogen) vector and transfected together with the hygromycin resistance gene into HEK 293 EBNA cells by Calcium-phosphate co-precipitation method. Antibiotic resistant cells were grown under constant selection pressure in DMEM/F-12 medium supplemented with 2% fetal calf serum, 4 mM L-Glutamine and 8 ml/l Insulin-Transferrin-Selenium-mix (all Invitrogen) and 300 μg/ml hygromycin at 37° C. in a humidified atmosphere of 5% CO2 in air. At 48 h before harvesting, receptor expression was enhanced by adding 5 mM of Na-butyrate. Cells were washed twice with phosphate buffer saline, harvested and pelleted by centrifugation.
Cell pellet was lysed by Dounce homogenisation in 250 mM sucrose, 25 mM Tris-HCl pH 7.5, 10 mM MgCl2, 1 mM EDTA containing proteases inhibitors according to the manufacturer (Boehringer Mannheim) at 4° C. The lysate was centrifuged at 1000 g, 4° C. for 10 min and the supernatant was centrifuged at 160000 g, 4° C. for 60 min. The membranes pellets were resuspended in binding buffer (10 mM MES pH 6.2, 10 mM MgCl2, 1 mM EDTA containing proteases inhibitors), frozen in dry ice ethanol and stored at −80° C.
In vitro competition binding with Scintillation proximity assay (SPA) was performed in Corning NBS 96 wells plates. Briefly, 100 μl of binding buffer containing 15 to 30 μg of purified membranes, 4 mg/ml of wheat-germ agglutinin (WGA) SPA beads and 1 to 2 nM of ^3H PGF2-alpha (determined by Scatchard analysis) in 1% DMSO was incubated for 2 hours at room temperature. Non-specific binding was determined in the presence of 1 μM of non-radioactive Prostaglandin F2α. The concentrations of compounds (antagonist) used to compete with the radioactive ligand (agonist) were 10 μM, 3 μM, 1 μM, 300 nM, 100 nM, 30 nM, 10 nM, 1 nM, 100 pM, 10 pM. The radioactivity was counted on a Microbeta plate counter and the binding data were analysed using the iterative, non-linear, curve-fitting program, “Prism” (GraphPad Software, Inc).

[2] = molecular target: T1, human Prostaglandin F2α receptor; test: Inhibition of Prostaglandin F2α induced Ca2+-mobilization in HEK/EBNA cells expressing the Prostaglandin F2α receptor (FLIPR); format: cell-based; conditions: HEK EBNA cells expressing the human Prostaglandin F2α receptor, 2 times the EC50 of Prostaglandin F2α
Description: • 3) In vitro functional assay 2: Inhibition of Prostaglandin F2α induced Ca^2′-mobilization in HEK/EBNA-cells expressing the Prostaglandin F2α receptor, as measured by FLIPR® (Fluorimetric Imaging Plate Reader).
HEK EBNA cells were seeded at 60000 cells/well in a Poly-L-Lysine precoated black/white bottom 96 well plate. […] Calcium mobilization was then measured on the FLIPR for 4 min. […] After the wash with FLIPR buffer, increasing concentrations of test compounds were added to the cells in FLIPR buffer and calcium mobilization was measured for 1 min.

[3] = molecular target: T1, human Prostaglandin F2α receptor; test: Inhibition of Prostaglandin F2α induced IP3 synthesis in HEK/EBNA cells expressing the Prostaglandin F2α receptor; format: cell-based; conditions: HEK EBNA cells expressing the human Prostaglandin F2α receptor; 30 nM PGF2α
Description: • 2) In vitro functional assay 1: Inhibition of Prostaglandin F2α induced IP3 (Inositol Triphosphate) Synthesis in HEK/EBNA-cells expressing the Prostaglandin F2α receptor
Cells were transfected by the calcium phosphate precipitation method with the appropriate plasmid and selected for hygromycinB resistance. The surviving colonies were assayed for their ability to retain specific [^3H] PGF2α binding. Selected clones were maintained in DMEM-F12 medium supplemented with 4 mM L-glutamine, 300 μg/ml hygromycinB and 2% fetal bovine serum (10% for cells expressing rFP).
Cells were detached with PBS/EDTA, washed with inositol-free DMEM-F12 medium and seeded at 80000 cells/well in a Poly-L-Lysine precoated 12 well plate. Cells were labelled with myo-[^3H] Inositol at 4 μCi/ml in inositol-free DMEM-F12 supplemented with 1% fetal bovine serum, 4 mM L-glutamine and 300 μg/ml hygromycinB. After 24 hours (rFP expressing cells) or 40 hours (hFP expressing cells), the medium was removed and cells were pre-incubated for 10 min in assay buffer (DMEM-F12 without Inositol, 20 mM Hepes, 0.1% BSA) containing 20 mM LiCl at 37° C. For agonist dose response, cells were then stimulated for 1 hour at room temperature with increasing concentration of PGF2α, in assay buffer. […] For agonist activity determination of the test compounds themselves, the test compounds were added to the cells at 10 μM and 1 μM for 1 hour at room temperature.
800 μl were then transferred to 400 μl of neutralizing solution (0.72N KOH, 0.6 M KHCO3), vortexed, and sedimented for at least 2 hours at 4° C. After centrifugation of 15 min. at 2500 g, 1 ml of the supernatant was loaded on a chromatography column, followed by two washes with 10 ml of water. The IP3 to be quantified were eluted with 3 ml elution buffer (1M ammonium formate, 0.1 M formic acid) and radioactivity was counted on a Beckman LS6000TA scintillation counter to measure the amount of phosphorylated [^3H] inositol.

[4] = test system: spontaneous uterine contractions in late-term pregnant Sprague Dawley female rats; test: Spontaneous uterine contractions in late-term pregnant rats; format: in vivo, rat
From the text: b) Spontaneous Uterine Contractions in Late-Term Pregnant Rats: • (i) Preparation of the Experiment:
Late-term pregnant (19-21 days of gestation) Sprague Dawley female rats (Charles River, Calco, Italy) weighing 350-400 g were anesthetized with urethane (1.05 g/kg, i.p.) and placed on a homeothermic operating table. The trachea was isolated and cannulated with a suitable polyethylene (PE) tubing. A midline incision at the hypogastrium level was made, one pregnant uterine horn exposed and its tubal end closed (near the ovary) by a ligature with surgical silk. In the correspondence of the last foetus near the above-mentioned ovary, the uterine horn wall was incited taking care not to injure the adjacent placenta, and a PE240 tubing with a latex balloon (9 mm length when empty, capacity 0.1 ml; Radnoti, Monrovia, Calif., USA) on the top was inserted into the lumen and secured with surgical silk. After filling the internal cavity of the latex balloon with 0.1 ml of sterile physiological saline solution, the catheter was connected to an amplifying/recording system (MacLab, ADInstruments Pty Ltd, Castle Hill, Australia) via a P23ID Gould Statham pressure transducer. […]
The spontaneous contractile response of the uterus was quantified by evaluating the area under the curve (AUC) of the changes in the intra-luminal uterine pressure over time (by Chart V4.04 for Windows software, PowerLab ADInstruments, Castle Hill, Australia). The effect of the test compound on the spontaneous uterine contraction was evaluated as the percent variation of the AUC calculated in a 10-min interval following the administration of each dose of test compound as compared to the AUC in a 10-min interval before the administration of the first dose of test compound (basal value). When possible, a dose-response curve (of peak effect) was plotted and the relative ED50 value calculated (by S-Plus 2000 v. 4.6 statistical software, Mathsoft, Inc. Seattle, Wash., USA).

[5] = test system: uterine contractions in non-pregnant Sprague Dawley female rats; test: PGF2α or fluprostenol-induced uterine contractions in non-pregnant rats; format: in vivo, rat; conditions: 40 minutes after administration by i.v. route, cumulative dose of 30 mg/kg
Description: a) PGF2α or fluprostenol-induced uterine contractions in non-pregnant rats
Non-pregnant Sprague Dawley female rats (Charles River, Calco, Italy) weighing 200-300 g were used. They received an i.p. injection of 250 μg/kg diethylstilbestrol (DES) 18 and 24 hours before the experiment. On the day of the experiment, they were anaesthetized with urethane (1.05 g/kg, i.p.) and placed on a homeothermic operating table. The trachea was then isolated and cannulated with a suitable polyethylene (PE) tubing. A midline incision at the hypogastrium level was made, one uterine horn exposed and its tubal end closed (near the ovary) by a ligature with surgical silk. About 3 cm posteriorly to the first tie, the uterine horn wall was incited (close to the uterus body) and a PE240 tubing was inserted into the lumen and secured with surgical silk. After filling the internal cavity with 0.2 ml of sterile physiological saline solution, the catheter was connected to an amplifying/recording system (MacLab, ADInstruments Pty Ltd, Castle Hill, Australia) via a P23ID Gould Statham pressure transducer. One jugular vein was then isolated and cannulated with a PE60 catheter connected to a butterfly needle for the intravenous administration of Prostaglandin F2α (Sigma Chem. co., St. Louis, Mo., USA) and (±)fluprostenol (Cayman Chemicals, Ann Arbor, Mich., USA) or test compounds. […]

T1 sequence (P43088 whole entry): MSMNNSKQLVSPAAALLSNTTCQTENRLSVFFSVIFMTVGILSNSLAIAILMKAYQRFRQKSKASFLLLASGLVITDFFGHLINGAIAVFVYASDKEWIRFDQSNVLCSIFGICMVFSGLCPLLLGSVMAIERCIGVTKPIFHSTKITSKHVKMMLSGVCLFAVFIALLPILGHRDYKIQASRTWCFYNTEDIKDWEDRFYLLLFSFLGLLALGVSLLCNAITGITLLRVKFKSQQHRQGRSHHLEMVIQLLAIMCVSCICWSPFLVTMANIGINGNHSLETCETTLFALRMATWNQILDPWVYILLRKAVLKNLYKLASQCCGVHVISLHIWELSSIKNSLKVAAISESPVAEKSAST

Row | Compound | Ki [1] | other results
1 | O=C(NC(CCO)c1ccco1)C1SCCN1S(=O)(=O)c1ccc(-c2ccccc2)cc1 (centres unmarked) [3-([1,1′-biphenyl]-4-ylsulfonyl)-N-[1-(2-furyl)-3-hydroxypropyl]-1,3-thiazolidine-2-carboxamide] | 620 nM | 
2 | CN(CCO)CC[C@H](NC(=O)[C@@H]1SCCN1S(=O)(=O)c1ccc(-c2ccccc2)cc1)c1ccccc1 [Example 21, (2S)-3-([1,1′-biphenyl]-4-ylsulfonyl)-N-{(1S)-3-[(2-hydroxyethyl)(methyl)-amino]-1-phenylpropyl}-1,3-thiazolidine-2-carboxamide] |  | IC50 [2]: 202 nM; IC50 [3]: 225 nM
3 | CC(=O)NCCNCCC(NC(=O)C1SCCN1S(=O)(=O)c1ccc(-c2ccccc2)cc1)c1ccccc1 (centres unmarked) [N-(3-{[2-(acetylamino)ethyl]amino}-1-phenylpropyl)-3-([1,1′-biphenyl]-4-ylsulfonyl)-1,3-thiazolidine-2-carboxamide] | 1150 nM | 
4 | Cc1c(S(=O)(=O)N2CCSC2C(=O)N[C@@H](Cc2ccccc2)C(=O)O)sc2ccc(Cl)cc12 (stereo partly drawn) [(2S)-2-[({3-[(5-chloro-3-methyl-1-benzothien-2-yl)sulfonyl]-1,3-thiazolidine-2-yl}carbonyl)amino]-3-phenylpropanoic acid] | 330 nM | 
5 | O=C(NC(CN1CCCC1)c1ccccc1)C1SCCN1S(=O)(=O)c1ccc(-c2ccccc2)cc1 (centres unmarked) [3-([1,1′-biphenyl]-4-ylsulfonyl)-N-[1-phenyl-2-(1-pyrrolidinyl)ethyl]-1,3-thiazolidine-2-carboxamide] | 170 nM | 
6 | O=C(NCCc1ccccc1)NCc1ccc(CNC(=O)C2SCCN2S(=O)(=O)c2ccc(-c3ccon3)s2)cc1 (centres unmarked) [3-{[5-(3-isoxazolyl)-2-thienyl]sulfonyl}-N-{4-[({[(2-phenylethyl)amino]carbonyl}amino)methyl]benzyl}-1,3-thiazolidine-2-carboxamide] | 1100 nM | 

Second part, led by results:

Row | Ki [1] | Compound | other results
7 | 55 nM | O=C(N[C@H](c1ccccc1)c1ccccn1)[C@@H]1SCCN1S(=O)(=O)c1ccc(-c2ccccc2)cc1 [Example 62, (2S)-3-(1,1′-biphenyl-4-ylsulfonyl)-N—[(R)-phenyl(pyridin-2-yl)methyl]-1,3-thiazolidine-2-carboxamide] | IC50 [2]: 20 nM; IC50 [3]: 15 nM
8 | 20 nM | CN(CC[C@H](NC(=O)[C@@H]1SCCN1S(=O)(=O)c1ccc(-c2ccccc2)cc1)c1ccccc1)Cc1ccccc1 [Example 19] | 
9 | 65 nM | O=C(N[C@@H](CCO)c1ccccc1)[C@@H]1SCCN1S(=O)(=O)c1ccc(-c2ccccc2)cc1 [Example 1, (2S)-3-([1,1′-biphenyl]-4-ylsulfonyl)-N-[(1S)-3-hydroxy-1-phenylpropyl]-1,3-thiazolidine-2-carboxamide] | IC50 [2]: 48 nM; ED50 ([4]; Rattus norvegicus, iv, 10 min, i.v. infusion over 10 minutes, spontaneous uterine contractions, read-out: calculated ED50 value): 28 mg/kg; calculated ED50 value ([4]; i.v. infusion over 10 minutes, spontaneous uterine contractions): 2.8 mg/kg/min; inhibition of uterine contractions ([4]; i.v. route (infusion over 10 minutes), cumulative dose of 30 mg/kg): > 50%; inhibition of uterine contractions [5]: 26%; IC50 [3]: 185 nM
10 | 50 nM | O=C(NC(CCO)c1c(F)cccc1F)C1SCCN1S(=O)(=O)c1ccc(-c2ccccc2)cc1 (centres unmarked) [Example 14, 3-([1,1′-biphenyl]-4-ylsulfonyl)-N-[1-(2,6-difluorophenyl)-3-hydroxypropyl]-1,3-thiazolidine-2-carboxamide] | 
11 | 120 nM | CCC(C)(C)c1ccc(S(=O)(=O)N2CCS[C@H]2C(=O)N[C@@H](CCO)c2ccccc2)cc1 [Example 10, (2S)—N-[(1S)-3-hydroxy-1-phenylpropyl]-3-[(4-tert-pentylphenyl)sulfonyl]-1,3-thiazolidine-2-carboxamide] | 
